Legend:
[1] = molecular target: T1, Human Melanocortin (MC3) (Homo sapiens, UniProt P41968); experiment: Radioligand binding, human melanocortin MC3 membranes, FlashPlate, [125I]-NDP-αMSH; conditions: compound at 10 μM, [125I]-NDP-αMSH
T1 construct: purchased Perkin Elmer Biosignal
Outline: (§1)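 Cloned human receptor membranes were coated onto FlashPlate wells and incubated with radioligand and compound (added from a 0.5 mM DMSO daughter plate) for 1 hour at room temperature in the dark. Scintillation counting gave percent inhibition, with DMSO defining total and reference ligand defining non-specific binding.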

[2] = molecular target: T2, Human δ-opioid (DOP) (Homo sapiens, UniProt P41143); experiment: Radioligand binding, human δ-opioid (DOP) membranes, FlashPlate, [3H]-Bremazocine; conditions: compound at 10 μM, [3H]-Bremazocine
T2 construct: purchased Perkin Elmer Biosignal
Outline: as §1

[3] = molecular target: T3, Human neuropeptide Y (NPY-Y1) (Homo sapiens, UniProt P25929); experiment: Radioligand binding, human neuropeptide Y NPY-Y1 membranes, FlashPlate, [125I]-PYY; conditions: compound at 10 μM, [125I]-PYY
T3 construct: purchased Perkin Elmer Biosignal
T3 sequence (P25929 1-384): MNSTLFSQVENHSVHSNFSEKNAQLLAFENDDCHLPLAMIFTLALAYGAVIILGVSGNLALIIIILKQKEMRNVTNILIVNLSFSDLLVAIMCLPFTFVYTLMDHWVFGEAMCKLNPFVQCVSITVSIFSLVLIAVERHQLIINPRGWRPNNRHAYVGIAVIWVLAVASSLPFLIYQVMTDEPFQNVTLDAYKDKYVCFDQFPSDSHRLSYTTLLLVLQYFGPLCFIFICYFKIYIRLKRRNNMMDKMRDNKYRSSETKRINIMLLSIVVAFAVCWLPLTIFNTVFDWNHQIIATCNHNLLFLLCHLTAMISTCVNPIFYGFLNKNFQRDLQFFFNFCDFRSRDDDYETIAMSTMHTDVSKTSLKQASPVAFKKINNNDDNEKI
Outline: as §1

[4] = molecular target: T4, Human opioid (ORL1) (Homo sapiens, UniProt P41146); experiment: Radioligand binding, human opioid ORL1 membranes, FlashPlate, [125I]-Nociceptin; conditions: compound at 10 μM, [125I]-Nociceptin
T4 construct: purchased Perkin Elmer Biosignal
Outline: as §1

[5] = molecular target: T5, Human Melanocortin (MC4) (Homo sapiens, UniProt P32245); experiment: Radioligand binding, human melanocortin MC4 membranes, FlashPlate, [125I]-NDP-αMSH; conditions: compound at 10 μM, [125I]-NDP-αMSH
T5 construct: purchased Perkin Elmer Biosignal
Outline: as §1

[6] = molecular target: T6, Mouse urotensin (mUR2) (Mus musculus, UniProt Q8VIH9); experiment: Radioligand binding, mouse urotensin mUR2 membranes, FlashPlate, [125I]-Urotensin II; conditions: compound at 10 μM, [125I]-Urotensin II
T6 construct: purchased Perkin Elmer Biosignal
T6 sequence (Q8VIH9 1-385): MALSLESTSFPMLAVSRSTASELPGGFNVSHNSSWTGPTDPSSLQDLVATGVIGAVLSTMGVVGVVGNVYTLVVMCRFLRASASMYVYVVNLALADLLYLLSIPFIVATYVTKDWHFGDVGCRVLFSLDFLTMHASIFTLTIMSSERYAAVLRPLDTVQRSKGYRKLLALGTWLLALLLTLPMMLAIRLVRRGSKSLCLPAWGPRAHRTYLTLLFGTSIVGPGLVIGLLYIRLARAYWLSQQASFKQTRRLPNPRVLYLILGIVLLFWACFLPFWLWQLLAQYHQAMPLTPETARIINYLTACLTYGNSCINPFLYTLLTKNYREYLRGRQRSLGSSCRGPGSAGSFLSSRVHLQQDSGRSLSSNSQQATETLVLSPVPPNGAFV
Outline: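 Cloned mouse urotensin (mUR2) receptor membranes from Perkin Elmer Biosignal were immobilized in FlashPlate microplates using a proprietary coating. Each well got 19.5 μl buffer, then 0.5 μl of DMSO, reference ligand, or compound. Adding 5 μl of [125I]-Urotensin II, diluted to 5× final concentration in binding buffer, started binding. Plates were sealed with TopSeal-A and incubated 1 hour at room temperature in the dark. Wells were counted for 30 seconds each on a TopCount after a 60-second delay, and percentage inhibition was calculated.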

[7] = molecular target: T7, Human melanin-concentrating hormone (MCH1) (Homo sapiens, UniProt Q99705); experiment: Radioligand binding, human melanin-concentrating hormone MCH1 membranes, FlashPlate, [125I]-S36057; conditions: compound at 10 μM
T7 construct: purchased Perkin Elmer Biosignal
Outline: as §1

[8] = molecular target: T8, Human melanocortin (MC5) (Homo sapiens, UniProt P33032); experiment: Radioligand binding, human melanocortin MC5 membranes, FlashPlate, [125I]-NDP-αMSH; conditions: compound at 10 μM, [125I]-NDP-αMSH
T8 construct: purchased Perkin Elmer Biosignal
Outline: as §1

[9] = molecular target: T9, Human μ-opioid (MOP) (Homo sapiens, UniProt P35372); experiment: Radioligand binding, human μ-opioid (MOP) membranes, FlashPlate, [3H]-Naloxone; conditions: compound at 10 μM, [3H]-Naloxone
T9 construct: purchased Perkin Elmer Biosignal
Outline: as §1

[10] = molecular target: T10, Human neurokinin (NK1) (Homo sapiens, UniProt P25103); experiment: Radioligand binding, human neurokinin NK1 membranes, filtration, [125I]-Substance P; conditions: compound at 10 μM, [125I]-Substance P
T10 construct: purchased Perkin Elmer Biosignal
Outline: (§2)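 Percent inhibition of radioligand binding measured on recombinant human membranes: NK1 with [125I]-Substance P, KOP with [3H]-Diprenorphine. Incubation 1 h at room temperature, then harvest onto 0.3% PEI-soaked filters, cold Tris-HCl pH 7.4 washes and scintillation counting; non-specific binding from reference ligand wells.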

[11] = molecular target: T11, Human κ-Opioid (KOP) (Homo sapiens, UniProt P41145); experiment: Radioligand binding, human κ-opioid (KOP) membranes, filtration, [3H]-Diprenorphine; conditions: compound at 10 μM, [3H]-Diprenorphine
T11 construct: purchased Perkin Elmer Biosignal
Outline: as §2

T11 sequence (P41145 whole entry): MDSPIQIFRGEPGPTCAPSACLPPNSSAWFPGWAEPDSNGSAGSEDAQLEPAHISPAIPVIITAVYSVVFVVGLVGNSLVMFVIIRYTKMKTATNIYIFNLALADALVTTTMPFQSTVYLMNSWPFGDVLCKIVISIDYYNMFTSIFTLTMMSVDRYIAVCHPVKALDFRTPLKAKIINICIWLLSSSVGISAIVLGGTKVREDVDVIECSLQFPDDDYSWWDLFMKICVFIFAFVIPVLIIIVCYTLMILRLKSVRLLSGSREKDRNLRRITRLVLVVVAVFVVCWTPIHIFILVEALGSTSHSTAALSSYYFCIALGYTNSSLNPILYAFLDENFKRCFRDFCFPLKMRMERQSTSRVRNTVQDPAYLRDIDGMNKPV
T1 sequence (P41968 whole entry): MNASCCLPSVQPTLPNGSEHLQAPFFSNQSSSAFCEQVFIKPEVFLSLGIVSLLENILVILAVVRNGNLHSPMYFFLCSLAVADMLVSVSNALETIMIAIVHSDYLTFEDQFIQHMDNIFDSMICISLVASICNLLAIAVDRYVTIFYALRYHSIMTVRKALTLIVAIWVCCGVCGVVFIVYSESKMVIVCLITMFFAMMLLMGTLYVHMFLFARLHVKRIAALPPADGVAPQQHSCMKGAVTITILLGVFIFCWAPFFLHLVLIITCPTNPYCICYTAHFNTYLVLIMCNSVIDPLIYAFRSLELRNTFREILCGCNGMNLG
T4 sequence (P41146 whole entry): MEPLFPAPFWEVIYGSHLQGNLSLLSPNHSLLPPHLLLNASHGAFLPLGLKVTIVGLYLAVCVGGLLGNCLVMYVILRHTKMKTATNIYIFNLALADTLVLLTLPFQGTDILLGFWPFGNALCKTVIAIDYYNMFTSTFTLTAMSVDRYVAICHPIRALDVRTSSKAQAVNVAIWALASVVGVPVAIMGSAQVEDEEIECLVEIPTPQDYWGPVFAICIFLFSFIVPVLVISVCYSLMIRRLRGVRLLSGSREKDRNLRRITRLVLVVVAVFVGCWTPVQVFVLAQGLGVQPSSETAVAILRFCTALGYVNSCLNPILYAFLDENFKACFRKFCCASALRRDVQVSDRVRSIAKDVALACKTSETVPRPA
T2 sequence (P41143 whole entry): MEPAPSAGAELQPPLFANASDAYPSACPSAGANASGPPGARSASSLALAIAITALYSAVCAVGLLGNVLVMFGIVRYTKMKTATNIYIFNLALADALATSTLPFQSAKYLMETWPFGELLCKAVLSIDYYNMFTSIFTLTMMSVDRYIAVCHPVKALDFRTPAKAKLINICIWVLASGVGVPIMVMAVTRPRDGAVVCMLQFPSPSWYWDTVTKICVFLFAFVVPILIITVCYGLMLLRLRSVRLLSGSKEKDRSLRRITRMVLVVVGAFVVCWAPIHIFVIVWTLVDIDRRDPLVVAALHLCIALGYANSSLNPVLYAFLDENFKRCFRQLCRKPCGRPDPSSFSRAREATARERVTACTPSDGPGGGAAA
T10 sequence (P25103 whole entry): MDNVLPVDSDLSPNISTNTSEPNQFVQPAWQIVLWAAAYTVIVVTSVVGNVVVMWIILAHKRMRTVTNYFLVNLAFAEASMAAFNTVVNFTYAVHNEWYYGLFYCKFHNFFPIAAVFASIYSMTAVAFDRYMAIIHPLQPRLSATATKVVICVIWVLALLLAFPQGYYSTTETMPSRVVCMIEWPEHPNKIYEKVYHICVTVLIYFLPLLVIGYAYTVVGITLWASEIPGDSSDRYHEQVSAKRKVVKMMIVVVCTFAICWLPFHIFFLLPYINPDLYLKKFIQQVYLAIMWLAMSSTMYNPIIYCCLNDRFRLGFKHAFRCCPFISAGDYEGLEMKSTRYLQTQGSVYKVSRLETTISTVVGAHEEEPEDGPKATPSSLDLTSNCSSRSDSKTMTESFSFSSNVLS
T7 sequence (Q99705 whole entry): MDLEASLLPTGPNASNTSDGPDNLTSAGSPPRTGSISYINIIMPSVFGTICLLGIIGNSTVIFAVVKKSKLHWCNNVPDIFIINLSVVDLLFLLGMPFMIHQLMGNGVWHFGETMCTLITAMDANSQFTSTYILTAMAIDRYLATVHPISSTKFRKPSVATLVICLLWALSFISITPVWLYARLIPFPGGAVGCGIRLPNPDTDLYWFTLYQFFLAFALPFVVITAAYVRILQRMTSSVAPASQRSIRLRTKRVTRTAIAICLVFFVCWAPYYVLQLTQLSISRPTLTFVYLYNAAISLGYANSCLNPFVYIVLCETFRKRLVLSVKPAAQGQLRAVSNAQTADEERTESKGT
T8 sequence (P33032 whole entry): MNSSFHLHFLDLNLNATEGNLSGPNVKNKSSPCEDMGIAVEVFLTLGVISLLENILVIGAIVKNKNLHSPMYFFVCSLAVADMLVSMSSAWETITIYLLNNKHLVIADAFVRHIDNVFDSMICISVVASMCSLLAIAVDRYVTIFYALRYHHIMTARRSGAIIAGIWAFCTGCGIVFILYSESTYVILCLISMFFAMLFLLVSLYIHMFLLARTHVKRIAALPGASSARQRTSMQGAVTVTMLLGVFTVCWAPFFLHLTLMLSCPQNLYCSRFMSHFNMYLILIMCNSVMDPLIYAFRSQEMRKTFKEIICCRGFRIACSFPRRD
T9 sequence (P35372 whole entry): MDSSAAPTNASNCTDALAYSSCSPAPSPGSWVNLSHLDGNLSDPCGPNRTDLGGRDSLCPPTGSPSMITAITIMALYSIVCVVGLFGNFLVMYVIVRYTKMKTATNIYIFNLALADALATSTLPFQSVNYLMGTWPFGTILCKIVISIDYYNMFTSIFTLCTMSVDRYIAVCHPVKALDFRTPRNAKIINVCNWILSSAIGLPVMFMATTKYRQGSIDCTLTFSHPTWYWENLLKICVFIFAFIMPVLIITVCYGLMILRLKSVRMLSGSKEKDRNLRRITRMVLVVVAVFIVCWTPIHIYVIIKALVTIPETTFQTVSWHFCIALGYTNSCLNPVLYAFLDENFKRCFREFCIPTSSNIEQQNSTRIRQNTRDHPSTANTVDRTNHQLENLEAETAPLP
T5 sequence (P32245 whole entry): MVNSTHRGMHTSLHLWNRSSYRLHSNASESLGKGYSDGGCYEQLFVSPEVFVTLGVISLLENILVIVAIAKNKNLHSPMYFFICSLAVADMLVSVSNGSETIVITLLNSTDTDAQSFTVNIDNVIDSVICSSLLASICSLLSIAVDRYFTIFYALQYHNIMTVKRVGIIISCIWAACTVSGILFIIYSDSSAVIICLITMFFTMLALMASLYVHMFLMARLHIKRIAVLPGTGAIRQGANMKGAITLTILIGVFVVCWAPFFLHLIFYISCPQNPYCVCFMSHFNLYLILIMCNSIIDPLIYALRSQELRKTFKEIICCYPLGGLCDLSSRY

SMILES: COCC1OC(OCc2ccc3ccccc3c2)C(NC(=O)CCN)C(OCc2ccc(-c3ccccc3)cc2)C1O (stereo not shown) [compound 243]
- A3: inhibition of radioligand binding ([1]; FlashPlate): − (“−” indicates less than 50% inhibition at 10 μM)
- A1: inhibition of radioligand binding ([2]; FlashPlate): − (“−” indicates less than 50% inhibition at 10 μM)
- A9: inhibition of radioligand binding ([3]; FlashPlate): − (“−” indicates less than 50% inhibition at 10 μM)
- A10: inhibition of radioligand binding ([4]; FlashPlate): − (“−” indicates less than 50% inhibition at 10 μM)
- A4: inhibition of radioligand binding ([5]; FlashPlate): + (“+” indicates greater than 50% inhibition at 10 μM)
- A11: inhibition of radioligand binding ([6]; FlashPlate): − (“−” indicates less than 50% inhibition at 10 μM)
- A6: inhibition of radioligand binding ([7]; [125I]-S36057, FlashPlate): − (“−” indicates less than 50% inhibition at 10 μM)
- A5: inhibition of radioligand binding ([8]; FlashPlate): + (“+” indicates greater than 50% inhibition at 10 μM)
- A7: inhibition of radioligand binding ([9]; FlashPlate): − (“−” indicates less than 50% inhibition at 10 μM)
- A8: inhibition of radioligand binding ([10]; filtration): + (“+” indicates greater than 50% inhibition at 10 μM)
- A2: inhibition of radioligand binding ([11]; filtration): − (“−” indicates less than 50% inhibition at 10 μM)

SMILES: NCCCC(=O)NC1C(OCc2ccc3ccccc3c2)OC(COCc2ccc(Cl)cc2)C(O)C1OCc1ccc(Cl)cc1 (stereo not shown) [compound 392]
- A3: inhibition of radioligand binding ([1]; human MC3 membranes): + (“+” indicates greater than 50% inhibition at 10 μM)
- A1: inhibition of radioligand binding ([2]; human DOP membranes): − (“−” indicates less than 50% inhibition at 10 μM)
- A9: inhibition of radioligand binding ([3]; human NPY-Y1 membranes): − (“−” indicates less than 50% inhibition at 10 μM)
- A10: inhibition of radioligand binding ([4]; human ORL1 membranes, 10 µM): − (“−” indicates less than 50% inhibition at 10 μM)
- A4: inhibition of radioligand binding ([5]; human MC4 membranes): + (“+” indicates greater than 50% inhibition at 10 μM)
- A11: inhibition of radioligand binding ([6]; mouse mUR2 membranes): − (“−” indicates less than 50% inhibition at 10 μM)
- A6: inhibition of radioligand binding ([7]; [125I]-S36057, human MCH1 membranes, 10 µM): − (“−” indicates less than 50% inhibition at 10 μM)
- A5: inhibition of radioligand binding ([8]; human MC5 membranes): + (“+” indicates greater than 50% inhibition at 10 μM)
- A7: inhibition of radioligand binding ([9]; human MOP membranes, 10 µM): − (“−” indicates less than 50% inhibition at 10 μM)
- A8: inhibition of radioligand binding ([10]; human NK1 membranes): + (“+” indicates greater than 50% inhibition at 10 μM)
- A2: inhibition of radioligand binding ([11]; human KOP membranes): − (“−” indicates less than 50% inhibition at 10 μM)

SMILES: N=C(N)NCC(=O)NC1C(OCc2ccc(Cl)cc2)OC(COCc2ccccc2)C(O)C1OCc1ccc2ccccc2c1 (stereo not shown) [compound 421]
- A3: inhibition of radioligand binding ([1]; human MC3 membranes): + (“+” indicates greater than 50% inhibition at 10 μM)
- A1: inhibition of radioligand binding ([2]; human DOP membranes): − (“−” indicates less than 50% inhibition at 10 μM)
- A9: inhibition of radioligand binding ([3]; human NPY-Y1 membranes): − (“−” indicates less than 50% inhibition at 10 μM)
- A10: inhibition of radioligand binding ([4]; human ORL1 membranes): + (“+” indicates greater than 50% inhibition at 10 μM)
- A4: inhibition of radioligand binding ([5]; human MC4 membranes): + (“+” indicates greater than 50% inhibition at 10 μM)
- A11: inhibition of radioligand binding ([6]; mouse mUR2 membranes): − (“−” indicates less than 50% inhibition at 10 μM)
- A6: inhibition of radioligand binding ([7]; [125I]-S36057, human MCH1 membranes): + (“+” indicates greater than 50% inhibition at 10 μM)
- A5: inhibition of radioligand binding ([8]; human MC5 membranes): + (“+” indicates greater than 50% inhibition at 10 μM)
- A7: inhibition of radioligand binding ([9]; human MOP membranes): − (“−” indicates less than 50% inhibition at 10 μM)
- A8: inhibition of radioligand binding ([10]; human NK1 membranes): + (“+” indicates greater than 50% inhibition at 10 μM)
- A2: inhibition of radioligand binding ([11]; human KOP membranes): − (“−” indicates less than 50% inhibition at 10 μM)

SMILES: COC[C@H]1OC(OCc2ccc(-c3ccccc3)cc2)[C@H](NC(=O)CCNC(=N)N)[C@@H](OCc2cccc(O)c2)[C@@H]1O (stereo partly shown) [compound 130]
- A3 radioligand binding, percentage inhibition [1]: − (“−” indicates less than 50% inhibition at 10 μM)
- A1 radioligand binding, percentage inhibition [2]: − (“−” indicates less than 50% inhibition at 10 μM)
- A9 radioligand binding, percentage inhibition [3]: − (“−” indicates less than 50% inhibition at 10 μM)
- A10 radioligand binding, percentage inhibition [4]: − (“−” indicates less than 50% inhibition at 10 μM)
- A4 radioligand binding, percentage inhibition [5]: − (“−” indicates less than 50% inhibition at 10 μM)
- A11 radioligand binding, percentage inhibition [6]: − (“−” indicates less than 50% inhibition at 10 μM)
- A6 radioligand binding, percentage inhibition ([7]; [125I]-S36057): − (“−” indicates less than 50% inhibition at 10 μM)
- A5 radioligand binding, percentage inhibition [8]: − (“−” indicates less than 50% inhibition at 10 μM)
- A7 radioligand binding, percentage inhibition [9]: + (“+” indicates greater than 50% inhibition at 10 μM)
- A8 radioligand binding, percentage inhibition [10]: − (“−” indicates less than 50% inhibition at 10 μM)
- A2 radioligand binding, percentage inhibition [11]: − (“−” indicates less than 50% inhibition at 10 μM)

SMILES: COC[C@H]1OC(OCc2ccc3ccccc3c2)[C@H](NC(=O)CCCN)[C@@H](OCc2ccc(-c3ccccc3)cc2)[C@@H]1O (stereo partly shown) [compound 337]
- A3: inhibition of radioligand binding, human melanocortin (MC3) [1]: − (“−” indicates less than 50% inhibition at 10 μM)
- A1: inhibition of radioligand binding, human δ-opioid (DOP) [2]: − (“−” indicates less than 50% inhibition at 10 μM)
- A9: inhibition of radioligand binding, human neuropeptide Y (NPY-Y1) [3]: − (“−” indicates less than 50% inhibition at 10 μM)
- A10: inhibition of radioligand binding, human opioid (ORL1) [4]: − (“−” indicates less than 50% inhibition at 10 μM)
- A4: inhibition of radioligand binding, human melanocortin (MC4) [5]: − (“−” indicates less than 50% inhibition at 10 μM)
- A11: inhibition of radioligand binding, mouse urotensin (mUR2) [6]: − (“−” indicates less than 50% inhibition at 10 μM)
- A6: inhibition of radioligand binding, human melanin-concentrating hormone (MCH1) ([7]; [125I]-S36057): + (“+” indicates greater than 50% inhibition at 10 μM)
- A5: inhibition of radioligand binding, human melanocortin (MC5) [8]: + (“+” indicates greater than 50% inhibition at 10 μM)
- A7: inhibition of radioligand binding, human μ-opioid (MOP) [9]: + (“+” indicates greater than 50% inhibition at 10 μM)
- A8: inhibition of radioligand binding, human neurokinin (NK1) [10]: + (“+” indicates greater than 50% inhibition at 10 μM)
- A2: inhibition of radioligand binding, human κ-opioid (KOP) [11]: − (“−” indicates less than 50% inhibition at 10 μM)
